Laboratory results from patent publication US7371773B2, “Breast cancer resistance protein (BCRP) inhibitor” (Kabushiki Kaisha Yakult Honsha, priority 2003, dated 2008).
In brackets after ≈: the same amount, converted by molar mass. Like-named read-outs stand apart in the source and are kept apart here.

Key:
Assay type in all cases: cell-based, human
[1] = system: A549/SN-38-5 cell line; assay: Anticancer drug sensitivity test, A549/SN-38-5; details: for IC50: A549/SN-38-5, culturing 48 hours; for Relative resistance value: IC50 for A549/SN-38-5 divided by IC50 for A549
Procedure: (§1) Human non-small cell lung cancer A549 cell line was subcultured at 5% CO2 and 37° C. by use of a Ham's F-12 medium containing 10% FBS, 100 U/mL of penicillin, and 100 μg/mL of streptomycin (10% FBS/Ham's F-12). SN-38-resistant A549 cell lines were selected by subculturing the A549 cell line in a medium for two months while the concentration of SN-38 contained in the medium was increased in a stepwise manner (4 to 10 ng/mL). Subsequently, the resultant SN-38-resistant A549 cell lines were subjected to cloning by means of limiting dilution, to thereby establish six cloned SN-38-resistant A549 cell lines (A549/SN-38-1 to 6).
(§2) The A549 cell line or each of the A549/SN-38-1 to 6 was suspended in 10% FBS/Ham's F-12, and the resultant suspension was inoculated into a 96-well microplate, followed by culturing at 5% CO2 and 37° C. overnight. Thereafter, a solution of an anticancer drug in 10% FBS/Ham's F-12 (50 μL) was added to each of the wells, followed by culturing at 5% CO2 and 37° C. for 48 hours. After completion of culturing, the number of viable cells was counted by use of a viable cell counting reagent [TetraColor ONE (trade name), product of Seikagaku Corporation] according to the attached instruction manual. […] “Relative resistance value” is obtained by dividing the IC50 for an A549/SN-38 cell line by the IC50 for the A549 cell line. The greater the relative resistance value, the higher the level of acquired resistance.

[2] = system: A549/SN-38-1 cell line; assay: Anticancer drug sensitivity test, A549/SN-38-1; details: for IC50: A549/SN-38-1, culturing 48 hours; for Relative resistance value: IC50 for A549/SN-38-1 divided by IC50 for A549
Procedure: as §1, §2

[3] = system: A549 cell line; assay: Anticancer drug sensitivity test, A549 cell line; details: culturing 48 hours
Procedure: as §2

[4] = system: A549/SN-38-3 cell line; assay: Anticancer drug sensitivity test, A549/SN-38-3; details: for IC50: A549/SN-38-3, culturing 48 hours; for Relative resistance value: IC50 for A549/SN-38-3 divided by IC50 for A549
Procedure: as §1, §2

[5] = system: A549/SN-38-6 cell line; assay: Anticancer drug sensitivity test, A549/SN-38-6; details: for IC50: A549/SN-38-6, culturing 48 hours; for Relative resistance value: IC50 for A549/SN-38-6 divided by IC50 for A549
Procedure: as §1, §2

[6] = system: A549/SN-38-2 cell line; assay: Anticancer drug sensitivity test, A549/SN-38-2; details: for IC50: A549/SN-38-2, culturing 48 hours; for Relative resistance value: IC50 for A549/SN-38-2 divided by IC50 for A549
Procedure: as §1, §2

[7] = system: A549/SN-38-4 cell line; assay: Anticancer drug sensitivity test, A549/SN-38-4; details: for IC50: A549/SN-38-4, culturing 48 hours; for Relative resistance value: IC50 for A549/SN-38-4 divided by IC50 for A549
Procedure: as §1, §2

[8] = system: A549/SN-38 cell lines; assay: Anticancer drug sensitivity test, A549/SN-38 cell lines as a group; details: BCRP substrates
[9] = system: A549/SN-38-4 cell line; assay: Amount of anticancer drug accumulated in A549/SN-38 cell line; details: SN-38 300 ng/mL, 37° C., 60 minutes

SMILES	IC50 ([1]; Homo sapiens, read-out: IC50) [µg/mL]	IC50 ([2]; Homo sapiens, read-out: IC50) [µg/mL]	IC50 ([3]; Homo sapiens, read-out: IC50) [µg/mL]	IC50 ([4]; Homo sapiens, read-out: IC50) [µg/mL]	IC50 ([5]; Homo sapiens, read-out: IC50) [µg/mL]	IC50 ([6]; Homo sapiens, read-out: IC50) [µg/mL]	IC50 ([7]; Homo sapiens, read-out: IC50) [µg/mL]	Relative resistance value [1]	Relative resistance value [2]	Relative resistance value [4]	Relative resistance value [5]	Relative resistance value [6]	Relative resistance value [7]	IC50 [1] [µg/mL]	IC50 [2] [µg/mL]	IC50 [3] [µg/mL]	IC50 [4] [µg/mL]	IC50 [5] [µg/mL]	IC50 [6] [µg/mL]	IC50 [7] [µg/mL]	other results
O=C1c2c(O)ccc(O)c2C(=O)c2c(NCCNCCO)ccc(NCCNCCO)c21 [mitoxantrone]																					Resistance of A549/SN-38 cell lines to the anticancer drug [8]: particularly strong resistance
O=c1[nH]cc(F)c(=O)[nH]1 [5-Fluorouracil]	1.7 (≈ 13.1 µM)	4.3 (≈ 33.1 µM)	2.1 (≈ 16.1 µM)	0.69 (≈ 5.3 µM)	1 (≈ 7.69 µM)	1.3 (≈ 9.99 µM)	0.91 (≈ 7 µM)	(0.8)	(2.0)	(0.3)	(0.5)	(0.6)	(0.4)								
CCc1c2c(nc3ccc(O)cc13)-c1cc3c(c(=O)n1C2)COC(=O)[C@]3(O)CC [SN-38, 7-ethyl-10-hydroxycamptothecin]								(7.7)	(9.2)	(9.7)	(7.4)	(7.5)	(7.7)	0.10 (≈ 0.255 µM)	0.12 (≈ 0.306 µM)	0.013 (≈ 0.0331 µM)	0.13 (≈ 0.331 µM)	0.10 (≈ 0.255 µM)	0.10 (≈ 0.255 µM)	0.10 (≈ 0.255 µM)	Amount of SN-38 accumulated in A549/SN-38-4 relative to A549 cell line [9]: about ⅕; Resistance of A549/SN-38 cell lines to the anticancer drug [8]: particularly strong resistance
CO[C@@]12[C@H](COC(N)=O)C3=C(C(=O)C(C)=C(N)C3=O)N1C[C@@H]1N[C@@H]12 [Mitomycin C]								(1.0)	(1.2)	(0.3)	(0.4)	(1.1)	(1.4)	0.11 (≈ 0.329 µM)	0.13 (≈ 0.389 µM)	0.11 (≈ 0.329 µM)	0.0029 (≈ 0.00867 µM)	0.047 (≈ 0.141 µM)	0.11 (≈ 0.329 µM)	0.15 (≈ 0.449 µM)	
N.N.[Cl][Pt][Cl] [Cisplatin]								(0.9)	(0.8)	(0.8)	(0.9)	(0.9)	(0.9)	15.9	15.1	18.6	15.1	16.8	16.5	17.0	

Now from value to compound, other results behind:

IC50 ([1]; Homo sapiens, read-out: IC50) [µg/mL]	IC50 ([2]; Homo sapiens, read-out: IC50) [µg/mL]	IC50 ([3]; Homo sapiens, read-out: IC50) [µg/mL]	IC50 ([4]; Homo sapiens, read-out: IC50) [µg/mL]	IC50 ([5]; Homo sapiens, read-out: IC50) [µg/mL]	IC50 ([6]; Homo sapiens, read-out: IC50) [µg/mL]	IC50 ([7]; Homo sapiens, read-out: IC50) [µg/mL]	SMILES	Relative resistance value [1]	Relative resistance value [2]	Relative resistance value [4]	Relative resistance value [5]	Relative resistance value [6]	Relative resistance value [7]	IC50 [1] [µg/mL]	IC50 [2] [µg/mL]	IC50 [3] [µg/mL]	IC50 [4] [µg/mL]	IC50 [5] [µg/mL]	IC50 [6] [µg/mL]	IC50 [7] [µg/mL]	other results
0.057 (≈ 0.105 µM)	0.19 (≈ 0.35 µM)	0.1 (≈ 0.184 µM)	0.12 (≈ 0.221 µM)	0.049 (≈ 0.0902 µM)	0.14 (≈ 0.258 µM)	0.22 (≈ 0.405 µM)	COc1cccc2c1C(=O)c1c(O)c3c(c(O)c1C2=O)C[C@@](O)(C(=O)CO)C[C@@H]3O[C@H]1C[C@H](N)[C@H](O)[C@H](C)O1 [Doxorubicin]	(0.6)	(1.9)	(1.3)	(0.5)	(1.4)	(2.3)								
0.0061 (≈ 0.00714 µM)	0.0098 (≈ 0.0115 µM)	0.0049 (≈ 0.00574 µM)	0.013 (≈ 0.0152 µM)	0.0071 (≈ 0.00831 µM)	0.012 (≈ 0.0141 µM)	0.014 (≈ 0.0164 µM)	CC(=O)O[C@H]1C(=O)[C@@]2(C)[C@H]([C@H](OC(=O)c3ccccc3)[C@]3(O)C[C@H](OC(=O)[C@H](O)[C@@H](NC(=O)c4ccccc4)c4ccccc4)C(C)=C1C3(C)C)[C@]1(OC(C)=O)CO[C@@H]1C[C@@H]2O [Paclitaxel]	(1.2)	(2.0)	(2.7)	(1.4)	(2.4)	(2.8)								
0.004 (≈ 0.0152 µM)	0.0039 (≈ 0.0148 µM)	0.009 (≈ 0.0342 µM)	0.004 (≈ 0.0152 µM)	0.004 (≈ 0.0152 µM)	0.0053 (≈ 0.0201 µM)	0.0032 (≈ 0.0122 µM)	Nc1ccn([C@@H]2O[C@H](CO)[C@@H](O)C2(F)F)c(=O)n1 [Gemcitabine]	(0.4)	(0.4)	(0.4)	(0.4)	(0.6)	(0.4)								
2.3 (≈ 3.91 µM)	0.27 (≈ 0.459 µM)	0.9 (≈ 1.53 µM)	1.6 (≈ 2.72 µM)	1 (≈ 1.7 µM)	0.8 (≈ 1.36 µM)	3.5 (≈ 5.95 µM)	COc1cc([C@@H]2c3cc4c(cc3[C@@H](O[C@@H]3O[C@@H]5CO[C@@H](C)O[C@H]5[C@H](O)[C@H]3O)[C@H]3COC(=O)[C@H]23)OCO4)cc(OC)c1O [Etoposide]	(2.7)	(0.3)	(1.9)	(1.1)	(1.0)	(4.0)								
